Experimental findings from patent US20130012434A1, “NOVEL SPIRO IMIDAZOLONES AS GLUCAGON RECEPTOR ANTAGONISTS, COMPOSITIONS, AND METHODS FOR THEIR USE” (priority 2010, published 2013) are described below.

The target in this assay is T1, recombinant human glucagon receptor (Homo sapiens, UniProt P47871).
T1 construct: expressed in transfected cells; host or cells: CHO cells
Description: Inhibition of glucagon-stimulated intracellular cAMP assay. Format: cell-based. The settings on record: CHO cells expressing recombinant human glucagon receptor, stimulated with 300 pM glucagon, LANCE cAMP kit. As for the experimental part: Inhibition of Glucagon-Stimulated Intracellular cAMP Assay
Chinese hamster ovary (CHO) cells expressing the recombinant human glucagon receptor were harvested with the aid of non-enzymatic cell dissociation solution (GIBCO 13151-014). The cells were then pelleted and suspended in the stimulation buffer (1×HBSS, 5 mM Hepes, 0.1% BSA, pH7.4 in presence of complete protease inhibitor and phosphodiesterase inhibitor). The adenylate cyclase assay was conducted following the LANCE cAMP Kit (Perkin Elmer, AD0262) instructions. Briefly, cells were preincubated with anti-cAMP antibody in the stimulation buffer with a final concentration of 3% DMSO for 30 minutes and then stimulated with 300 pM glucagon for 45 minutes. The reaction was stopped by incubating with the detection buffer containing Europium chelate of the Eu-SA/Biotin-cAMP tracer for 20 hours. The fluorescence intensity emitted from the assay was measured at 665 nm using PheraStar instruments. […] Standard cAMP concentrations were conducted concurrently for conversion of fluorescence signal to cAMP level. Data was analyzed using GraphPad Prism. IC50 values were calculated using non-linear regression analysis assuming single site competition. […] Some of the compounds of the invention shown in the examples measured less than about 5 μM in this assay; other examples measured less than about 500 nM; others less than about 100 nM. […]
(In general: Changes in cAMP serve as a functional read-out for many G protein-coupled receptors.)

T1 sequence (P47871 26-477): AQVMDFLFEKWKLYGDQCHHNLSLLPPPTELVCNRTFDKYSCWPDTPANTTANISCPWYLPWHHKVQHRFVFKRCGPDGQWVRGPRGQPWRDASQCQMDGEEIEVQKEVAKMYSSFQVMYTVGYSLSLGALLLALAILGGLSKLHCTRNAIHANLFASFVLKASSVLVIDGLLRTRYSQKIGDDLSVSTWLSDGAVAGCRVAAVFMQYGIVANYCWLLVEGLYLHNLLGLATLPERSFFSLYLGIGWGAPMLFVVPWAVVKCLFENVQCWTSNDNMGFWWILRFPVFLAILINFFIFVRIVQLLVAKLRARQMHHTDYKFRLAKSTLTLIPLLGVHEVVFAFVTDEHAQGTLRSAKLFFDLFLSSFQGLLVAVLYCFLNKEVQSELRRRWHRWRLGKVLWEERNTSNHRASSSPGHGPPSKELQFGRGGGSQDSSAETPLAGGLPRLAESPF

As usually defined, the IC50 is the concentration needed to halve the response being measured. Turning to `CC(C)(C)CC[C@H](c1ccc(C(=O)NCCC(=O)O)cc1)N1C(=O)C(c2cccc(F)c2)=NC12CCC([Si](C)(C)C)CC2` (some centres unmarked) [Example 5.26], the half-inhibitory concentration (IC50) was found to be 61 nM.

For the compound `CC(C)(C)CCOc1cccc(C2=NC3(CCC(C(C)(C)C)CC3)N([C@H](CCC(C)(C)C)c3ccc(C(=O)NCc4nn[nH]n4)cc3)C2=O)c1` (some centres unmarked) [Example 5.69], the half-inhibitory concentration (IC50) was 22 nM.
